# From paper PMC9035150, “Effects of ALT-801, a GLP-1 and glucagon receptor dual agonist, in a translational mouse model of non-alcoholic steatohepatitis” (Scientific Reports, 2022)
# Test system: DIO-NASH mouse model
# Assay: Biopsy-confirmed DIO-NASH (AMLN diet) mouse model, 12 weeks of daily treatment
# Type: in vivo
# Description: ALT-801 was evaluated for its metabolic and anti-fibrotic effects during 12 weeks of treatment in the well-documented Amylin Liver NASH (AMLN) DIO-NASH mouse model[22],[44] at Gubra ApS. Mice had ad libitum access to tap water and a diet high in fat (40%, containing 18% trans-fat; 40% carbohydrates, 20% fructose) and 2% cholesterol (AMLN diet; D09100301, Research Diets, New Brunswick, NJ). Semaglutide (GLP-1R agonist) and elafibranor (peroxisome proliferator-activated receptor [PPAR]-α/δ agonist) were included as comparators to assess the effects of added GCGR agonism, and a previously observed modest antifibrotic effect in this assay, respectively. […]
# After 29 weeks of diet induction (week-3 relative to start of treatment) a pre-treatment liver biopsy was performed as described in detail previously[44] to select animals for stratification and randomization based on histological assessment. Liver histology was scored using the NAS and fibrosis stage criteria defined by the NASH Clinical Research Network Pathology Committee[47] and only those animals with confirmed steatosis (score ≥ 2) and fibrosis (stage ≥ 1) were selected for stratification and randomization. A stratified randomization into treatment groups was performed for the biopsy-proven DIO-NASH mice according to liver collagen type 1 alpha 1 (Col1A1) quantification at week-3. […]
compound,measurement,setting,value
CSc1ccc(C(=O)/C=C/c2cc(C)c(OC(C)(C)C(=O)O)c(C)c2)cc1 [elafibranor],Animals with reduction in fibrosis stage of 1 or greater compared to the start of treatment,12 weeks,75%
same,Body weight vs. vehicle,"daily for 12 weeks, ALT-801 5 and 10 nmol/kg s.c., semaglutide 10 nmol/kg s.c., elafibranor 78 μmol/kg oral, stabilized after 2–3 weeks, n = 11–12",significant (p < 0.001) body weight decreases
